Experimental data taken from patent US20250213583A1, “ANTIVIRAL PHARMACEUTICAL COMPOSITION AND USE THEREOF” (priority 2022, published 2025).
pEC50: −log10 of the molar value.

Tests used:
Zika virus (ZIKV) = assay: microbe, parasite or virus in culture; type: cell-based
[1] = tested on: mitochondrial OXPHOS complexes I, II, III, IV, and V; assay: Mitochondrial OXPHOS complex expression (mRNAseq DEG) in SARS-CoV-2 B.1-infected hACE2-A549 cells; type: cell-based, human; conditions: SARS-CoV-2 B.1-infected hACE2-A549, MOI 0.1, 30 μM, 24 hpi
Seoul virus (SEOV) = assay: microbe, parasite or virus in culture; type: cell-based
SARS-CoV-2 B.1 [2] = assay: RT-qPCR of viral RNA, Vero E6 cells infected with SARS-CoV-2 B.1; type: cell-based
hACE2-A549 cells = assay: Mitochondrial membrane potential by JC-1 staining, SARS-CoV-2 B.1-infected hACE2-A549 cells; type: cell-based, human; conditions: SARS-CoV-2 B.1-infected hACE2-A549, 30 μM, 24 hpi
Method: JC-1 is a marker for mitochondrial membrane potential, and appears as a green fluorescent monomer (˜529 nm) at depolarization and abnormal mitochondrial membrane potential. JC-1 was diluted to 10 mM, and the JC-1 solution was treated at a final concentration of 2 μM in serum-free DMEM for 20 minutes at 37° C. and 5% CO2. Control cells were treated with H2O2 for 20 minutes. After JC-1 staining, nuclei were stained using Hoechst 33342 (Thermo Fisher Scientific, cat #62249) for five minutes at room temperature. After each staining step, cells were washed three times with pre-heated PBS and mounted on a glass slide. All steps were carried out with light blocked.
To evaluate mitochondrial homeostasis by treatment with Example Compound 1, hACE2-A549 cells and Calu-3 cells were infected with SARS-CoV-2 B.1 virus at MOI=0.1 and 1. After two hours, the cells were treated with Example Compound 1 at 30 μM, and JC-1 and MitoTracker staining of the hACE2A-549 cells and Calu-3 cells was performed at 24 hpi.

[3] = tested on: Nrf2 signaling pathway (HMOX1, Nqo1); assay: Nrf2 signaling pathway gene expression (mRNAseq DEG, RT-qPCR) in SARS-CoV-2 B.1-infected hACE2-A549 cells; type: cell-based, human; conditions: SARS-CoV-2 B.1-infected hACE2-A549, MOI 0.1, 30 μM, 24 hpi
vaccinia virus (VACV) = assay: microbe, parasite or virus in culture; type: cell-based
Calu-3 cells = assay: Mitochondrial membrane potential by MitoTracker Orange CMTMRos and IFA, SARS-CoV-2 B.1-infected Calu-3 cells; type: cell-based; conditions: SARS-CoV-2 B.1-infected Calu-3, 30 μM, 24 hpi
Method: Mitochondrial membrane potential probes MitoTracker™ Orange CMTMRos (Invitrogen™ cat #M7510) and JC-1 (Thermo Fisher Scientific, cat #T3168) were used to measure the recovery of mitochondrial membrane potential. Mitotracker™MOrange CMTMRos is a fluorescent dye that stains mitochondria in living cells and can be observed under a confocal microscope at a wavelength of 554 to 576 nm.
Calu-3 cells were seeded on a 4-chamber slide, infected with a virus and treated with Example Compound 1, and then treated with Mitotracker™MOrange CMTMRos at a final concentration of 500 nM in serum-free DMEM for 20 minutes at 37° C. and 5% CO2. Control cells were treated with carbonyl cyanide-p-trifluoromethoxyphenylhydrazone (FCCP) for 20 minutes. All steps were carried out with light blocked, the 4-chamber slide was washed three times with pre-heated PBS, and an immunofluorescence analysis (IFA) was performed.
To evaluate mitochondrial homeostasis by treatment with Example Compound 1, hACE2-A549 cells and Calu-3 cells were infected with SARS-CoV-2 B.1 virus at MOI=0.1 and 1. […]
In addition, after infecting the Calu-3 cells with SARS-CoV-2, the membrane potential of the infected cells was measured using MitoTracker™ Orange CMTMRos and IFA, and the results are shown in FIG. 5C.

[4] = tested on: SARS-CoV-2 B.1 nucleocapsid protein; assay: Western blot of nucleocapsid protein, Vero E6 cells infected with SARS-CoV-2 B.1; type: cell-based; conditions: Vero E6, MOI=0.01, 30, 20, 10, 1 μM, 24 hpi
Method: (§1) Vero E6 cells, Calu-3 cells (1×10^6 cells per well), and hACE2-A549 cells (0.5×10^6 cells per well) were seeded in 6-well plates and placed in an incubator at 37° C. and 5% CO2 conditions overnight. When the cells reached approximately 80% density, they were washed twice with pre-heated phosphate-buffered saline (PBS; Gibco™ cat #70011069), 1 mL of 2% FBS medium was added, and the cells were infected at the following multiplicity of infection [MOI] values at 37° C. for two hours (MOI=0.01 for Vero E6 cells, MOI=0.1 for hACE2-A549 cells, and MOI=1 for Calu-3 cells). The infected plate was shaken every 15 minutes to efficiently distribute the infectious material. After two hours of virus adsorption, Example Compound 1 was administered. Next, the supernatants and cells were harvested at 24 hours post infection (hpi).
(§2) Cells were lysed using a radioimmunoprecipitation assay (RIPA) buffer (Cell Signaling Technology® cat #9806) and a protease/phosphatase inhibitor mixture (Cell Signaling Technology®, cat #5872). […]
(§3) The gels were transblotted using polyvinylidene difluoride (PVDF) membranes (Millipore Ltd., cat #617203) at 30 V for 90 minutes. […] The antibody-treated PVDF membrane was detected with a horseradish peroxidase (HRP) substrate (EMD Millipore Corporation) using VILBER (FUSION Solo S instrument). […]

[5] = tested on: SARS-CoV-2 B.1 nucleocapsid protein; assay: Western blot of nucleocapsid protein, hACE2-A549 cells infected with SARS-CoV-2 B.1; type: cell-based; conditions: hACE2-A549, MOI=0.1, 24 hpi
Method: as §1, §2, §3

SARS-CoV-2 B.1 [6] = assay: RT-qPCR of viral RNA, hACE2-A549 cells infected with SARS-CoV-2 B.1; type: cell-based; conditions: for pEC50: read-out: EC50 against the SARS-CoV-2 B.1 virus; for inhibited the replication of SARS-CoV-2 B.1 (RT-qPCR): 24 hpi
[7] = tested on: p-MLKL and cleaved caspase-3; assay: Western blot of cell death factors, SARS-CoV-2 B.1-infected hACE2-A549 cells; type: cell-based, human; conditions: SARS-CoV-2 B.1-infected hACE2-A549, MOI 0.1, 30 μM, 48 hpi
Method: Cells were lysed using a radioimmunoprecipitation assay (RIPA) buffer (Cell Signaling Technology® cat #9806) and a protease/phosphatase inhibitor mixture (Cell Signaling Technology®, cat #5872). The lysed cells were electrophoresed on 12% and 15% acrylamide gels using sodium dodecyl sulfate polyacrylamide gels at 80 to 120 V for 90 minutes.
The gels were transblotted using polyvinylidene difluoride (PVDF) membranes (Millipore Ltd., cat #617203) at 30 V for 90 minutes. Proteins were transferred to a PVDF membrane and blocked at room temperature for one hour using Tris-buffered saline (TBS) and 0.1% Tween-20 (TBS-T, Bio-Rad Laboratories, Inc., cat #1706531) and 5% skim milk. […] The antibody-treated PVDF membrane was detected with a horseradish peroxidase (HRP) substrate (EMD Millipore Corporation) using VILBER (FUSION Solo S instrument). […]

MFN1 and MFN2 = assay: Western blot of mitochondrial fusion factors, SARS-CoV-2 B.1-infected Calu-3 cells; type: cell-based; conditions: SARS-CoV-2 B.1-infected Calu-3, 24 hpi
SARS-CoV-2 B.1 [8] = assay: Plaque assay, hACE2-A549 cells infected with SARS-CoV-2 B.1; type: cell-based; conditions: hACE2-A549, MOI=0.1, 30 μM, 24 hpi
[9] = tested on: SARS-CoV-2 B.1.617.2 (delta); assay: microbe, parasite or virus in culture; type: cell-based
SARS-CoV-2 B.1 [10] = assay: Plaque assay, Vero E6 cells infected with SARS-CoV-2 B.1; type: cell-based; conditions: Vero E6, MOI=0.01, 30 μM, 24 hpi
[11] = tested on: interferon signaling and pro-inflammatory cytokine genes (Ifnβ, Ifit1, Ifit2, Il-6, Tnfα); assay: Inflammatory cytokine gene expression (mRNAseq DEG, RT-qPCR) in SARS-CoV-2 B.1-infected hACE2-A549 cells; type: cell-based, human
[12] = tested on: SARS-CoV-2 BA.1 (omicron); assay: microbe, parasite or virus in culture; type: cell-based
[13] = Severe acute respiratory syndrome coronavirus 2
[14] = SARS-CoV-2 B.1-infected hACE2-A549, 30 μM and 1 μM

O=S1(=O)CCN(Cc2cc(NC3CCOCC3)c3[nH]c(-c4ccccc4)cc3c2)CC1 [Example Compound 1, 5-[(1,1-dioxido-4-thiomorpholinyl)methyl]-2-phenyl-N-(tetrahydro-2H-pyran-4-yl)-1H-indol-7-amine]
reduced the expression level of ZIKV (RT-qPCR) (Zika virus (ZIKV); Vero E6): about 16 times | pEC50 (Zika virus (ZIKV); Zika virus, Vero C1008, Vero E6, 48 hpi): 5.11 | expression of mitochondrial OXPHOS complexes I to V (mRNAseq, DEG) [1]: up-regulated expression of all five OXPHOS complexes | pEC50 (Seoul virus (SEOV); Orthohantavirus seoulense, Vero C1008, read-out: EC50, SEOV): 5.72 | reduced the expression level of SEOV (RT-qPCR) (Seoul virus (SEOV); Vero E6, 24 hpi): about 3 times | pEC50 (SARS-CoV-2 B.1 [2]; Severe acute respiratory syndrome coronavirus 2, Vero C1008, Vero E6, MOI=0.01, 24 hpi, read-out: EC50 against SARS-CoV-2 B.1): 5.96 | SARS-CoV-2 B.1 virus replication inhibited compared to untreated cells (RT-qPCR) (SARS-CoV-2 B.1 [2]; Vero E6, MOI=0.01, 30 μM, 24 hpi): up to 1,000 times | mitochondrial membrane potential (JC-1 Aggregate, RED) intensity (hACE2-A549 cells): intensity level similar to that of the uninfected cells | Nrf2 signaling pathway (mRNAseq, DEG) [3]: up-regulated | gene expression of HMOX1 and Nqo1 (RT-qPCR), compared to untreated infected cells [3]: significant increase | pEC50 (vaccinia virus (VACV); Orthopoxvirus vaccinia, Vero C1008, read-out: EC50, VACV): 5.18 | reduced the expression level of VACV (RT-qPCR) (vaccinia virus (VACV); Vero E6, 24 hpi): about 15 times | SARS-CoV-2 nucleocapsid protein (IFA) (Calu-3 cells): significant decrease | mitochondrial membrane potential, MitoTracker accumulation (Calu-3 cells): accumulation of MitoTracker | expression of SARS-CoV-2 B.1 nucleocapsid protein (Western blot) [4]: decreased in a dose-dependency | expression of SARS-CoV-2 B.1 nucleocapsid protein (Western blot) [5]: decreased in a dose-dependency | pEC50 (SARS-CoV-2 B.1 [6]; Severe acute respiratory syndrome coronavirus 2, hACE2-A549, MOI=0.01, 24 hpi): 5.85 | pEC50 (SARS-CoV-2 B.1 [6]; Severe acute respiratory syndrome coronavirus 2, hACE2-A549, MOI=0.1, 24 hpi): 5.15 | inhibited the replication of SARS-CoV-2 B.1 (RT-qPCR) (SARS-CoV-2 B.1 [6]; hACE2-A549, MOI=0.01, 30 µM): about 100 times | inhibited the replication of SARS-CoV-2 B.1 (RT-qPCR) (SARS-CoV-2 B.1 [6]; hACE2-A549, MOI=0.1, 30 μM): about 100 times | necrosis-related p-MLKL protein and cell death-related cCaspase 3 protein (Western blot) [7]: inhibited | MFN1 and MFN2 protein level (Western blot) (MFN1 and MFN2): overexpression was suppressed | infectious particles of SARS-CoV-2 B.1 reduced (plaque assay) (SARS-CoV-2 B.1 [8]): 100 fold | antiviral effect against SARS-CoV-2 B.1.617.2 (delta) (RT-qPCR) [9]: about 1000 fold | pEC50 [9, 13]: 5.92 | infectious particles of SARS-CoV-2 B.1 reduced compared to untreated cells (plaque assay) (SARS-CoV-2 B.1 [10]): 1,000 times | expression of the interferon signaling and pro-inflammatory cytokine genes (mRNAseq, DEG) ([11]; SARS-CoV-2 B.1-infected hACE2-A549): inhibited the expression | expression of interferon-related genes Ifnβ, Ifit1, and Ifit2 (RT-qPCR) [11, 14]: significantly down-regulated | induction of pro-inflammatory cytokine genes Il-6 and Tnfα (RT-qPCR) [11, 14]: reduced the induction | antiviral effect against SARS-CoV-2 BA.1 (omicron) (RT-qPCR) [12]: ~30 fold | pEC50 [12, 13]: 5.96
